# Laboratory results reported in ChEMBL document CHEMBL1667784, “Synthesis and structure-activity relationship of 2-thiopyrimidine-4-one analogs as antimicrobial and anticancer agents” (Eur J Med Chem, 2011).
# Legend:
# Edwardsiella tarda = test: Antimicrobial activity against Edwardsiella tarda assessed as growth inhibition at 10 ug/ml by agar dilution method; type: functional
# Neisseria mucosa [1] = test: Antimicrobial activity against Neisseria mucosa assessed as growth inhibition at 10 ug/ml by agar dilution method; type: functional
# [2] = tested on: Staphylococcus epidermidis; test: Antimicrobial activity against Staphylococcus epidermidis ATCC 12228 assessed as growth inhibition at 10 ug/ml by agar dilution method; type: functional
# Staphylococcus aureus = test: Antimicrobial activity against Staphylococcus aureus ATCC 25923 assessed as growth inhibition at 10 ug/ml by agar dilution method; type: functional
# Bacillus subtilis = test: Antimicrobial activity against Bacillus subtilis ATCC 6633 assessed as growth inhibition at 10 ug/ml by agar dilution method; type: functional
# Streptococcus pyogenes [3] = test: Antimicrobial activity against Streptococcus pyogenes assessed as growth inhibition at 10 ug/ml by agar dilution method; type: functional
# Moraxella catarrhalis [4] = test: Antimicrobial activity against Branhamella catarrhalis assessed as growth inhibition at 10 ug/ml by agar dilution method; type: functional
# Streptococcus pyogenes [5] = test: Antimicrobial activity against Streptococcus pyogenes assessed as growth inhibition at 128 ug/ml by agar dilution method; type: functional
# A549 = test: Cytotoxicity against human A549 cells after 3 days by MTT assay; type: functional, cell-based; details: A549, 72 h
# MDA-MB-231 = test: Cytotoxicity against human MDA-MB-231 cells after 3 days by MTT assay; type: functional, cell-based; details: MDA-MB-231, 72 h
# [6] = Cytotoxicity against human HCC-S102 cells after 3 days by MTT assay; type: functional, cell-based; details: HCC-S102, 72 h
# T47D = test: Cytotoxicity against human T47D cells after 3 days by MTT assay; type: functional, cell-based; details: 72 h
# HepG2 = test: Cytotoxicity against human HepG2 cells after 3 days by MTT assay; type: functional, cell-based; details: HepG2, 72 h
# P388 = test: Cytotoxicity against mouse P388 cells after 3 days by MTT assay; type: functional, cell-based; details: P388, 72 h
# KB = test: Cytotoxicity against human KB cells after 3 days by MTT assay; type: functional, cell-based; details: 72 h
# Plasmodium falciparum = test: Antimalarial activity against chloquine-resistant Plasmodium falciparum T9.94 infected in human erythrocyte assessed as decrease in parasite growth after 48 hrs by microscopy; type: functional, organism-based; details: T9.94, 48 h
# HeLa = test: Cytotoxicity against human HeLa cells after 3 days by MTT assay; type: functional, cell-based; details: 72 h
# HL-60 = test: Cytotoxicity against human HL60 cells after 3 days by MTT assay; type: functional, cell-based; details: HL-60, 72 h
# [7] = Cytotoxicity against human HuCCa1 cells after 3 days by MTT assay; type: functional, cell-based; details: HuCC-A1, 72 h
# Moraxella catarrhalis [8] = test: Antimicrobial activity against Branhamella catarrhalis assessed as growth inhibition at 128 ug/ml by agar dilution method; type: functional
# H69AR = test: Cytotoxicity against human H69AR cells after 3 days by MTT assay; type: functional, cell-based; details: 72 h
# Neisseria mucosa [9] = test: Antimicrobial activity against Neisseria mucosa assessed as growth inhibition at 128 ug/ml by agar dilution method; type: functional
# Moraxella catarrhalis [10] = test: Antimicrobial activity against Branhamella catarrhalis assessed as growth inhibition at 64 ug/ml by agar dilution method; type: functional
# Candida albicans = test: Antifungal activity against Candida albicans assessed as growth inhibition at 128 ug/ml by agar dilution method; type: functional
SMILES,inhibition at 128 µg/mL (Streptococcus pyogenes [5]) [%],IC50 (A549) [µg/mL],IC50 (MDA-MB-231) [µg/mL],IC50 [6] [µg/mL],IC50 (T47D) [µg/mL],IC50 (HepG2) [µg/mL],IC50 (P388) [µg/mL],IC50 (KB) [µg/mL],IC50 (Plasmodium falciparum) [µM],IC50 (HeLa) [µg/mL],IC50 (HL-60) [µg/mL],IC50 [7] [µg/mL],inhibition at 128 µg/mL (Moraxella catarrhalis [8]) [%],IC50 (H69AR) [µg/mL],inhibition at 128 µg/mL (Neisseria mucosa [9]) [%],also measured
CC1(C)S[C@@H]2[C@H](NC(=O)[C@H](N)c3ccccc3)C(=O)N2[C@H]1C(=O)O [AMPICILLIN],–,–,–,–,–,–,–,–,–,–,–,–,–,–,–,inhibition at 10 µg/mL (Edwardsiella tarda): 100%; inhibition at 10 µg/mL (Neisseria mucosa [1]): 100%; inhibition at 10 µg/mL [2]: 100%; inhibition at 10 µg/mL (Staphylococcus aureus): 100%; inhibition at 10 µg/mL (Bacillus subtilis): 100%; inhibition at 10 µg/mL (Streptococcus pyogenes [3]): 100%; inhibition at 10 µg/mL (Moraxella catarrhalis [4]): 100%
O=c1ccnc(SCc2ccccc2)[nH]1,25,> 50,> 50,> 50,> 50,> 50,> 50,> 50,10,> 50,> 50,> 50,50,> 50,–,–
CCCCSc1nccc(=O)[nH]1,25,> 50,> 50,> 50,5,> 50,> 50,27,10,> 50,> 50,> 50,100,> 50,25,–
O=c1ccnc(SCC2CCCCC2)[nH]1,100,> 50,> 50,> 50,> 50,> 50,40.4,> 50,10,> 50,> 50,> 50,–,50,25,inhibition at 64 µg/mL (Moraxella catarrhalis [10]): 100%; inhibition at 128 µg/mL (Candida albicans): 75%
CCC(C)Sc1nccc(=O)[nH]1 (configuration not stated),–,> 50,–,–,–,> 50,–,–,10,–,–,> 50,–,–,–,–
COc1cc([C@@H]2c3cc4c(cc3[C@@H](O[C@@H]3O[C@@H]5CO[C@@H](C)O[C@H]5[C@H](O)[C@H]3O)[C@H]3COC(=O)[C@H]23)OCO4)cc(OC)c1O [ETOPOSIDE],–,0.6,0.24,6,0.05,21,0.12,0.25,–,0.38,0.85,4,–,30,–,–
O=c1ccnc(SC23CC4CC(CC(C4)C2)C3)[nH]1,25,> 50,> 50,> 50,32,32.5,36.9,> 50,10,> 50,> 50,> 50,75,35,25,–
